These results are taken from PMC3503826, “Limits of Ligand Selectivity from Docking to Models: In Silico Screening for A1 Adenosine Receptor Antagonists” (PLoS ONE, 2012).

The target of one experiment is T1, human A1AR (Homo sapiens, UniProt P30542).
T1 construct: expressed in transfected cells
T1 sequence (P30542 1-326): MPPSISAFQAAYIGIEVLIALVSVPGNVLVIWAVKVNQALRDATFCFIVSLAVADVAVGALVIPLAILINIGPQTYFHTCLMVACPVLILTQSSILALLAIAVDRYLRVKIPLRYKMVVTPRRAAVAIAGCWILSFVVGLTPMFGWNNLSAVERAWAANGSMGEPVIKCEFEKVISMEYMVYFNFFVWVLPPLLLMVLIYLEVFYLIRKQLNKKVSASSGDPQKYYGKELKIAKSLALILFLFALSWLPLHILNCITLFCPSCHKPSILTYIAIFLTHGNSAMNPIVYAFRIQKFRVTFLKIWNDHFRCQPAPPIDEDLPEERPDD
Kind of experiment: Radioligand binding ([3H]DPCPX), membranes of CHO cells expressing hA1AR. Conditions: for Ki / inhibition at 10 µM: hA1AR, CHO cell membranes; for Ki: [3H]DPCPX 0.5 nM, mean ± standard error, read-out: A1 Ki; for inhibition at 10 µM: percent inhibition at 10 µM compound, [3H]DPCPX, read-out: A1 % Inhibition. How it is done:
(§1) Binding affinity for three human AR (hAR) subtypes was measured using standard radioligand assays and membrane preparations from Chinese hamster ovary (CHO) cells (A1 and A3) or human embryonic kidney (HEK) 293 cells (A2A) stably expressing a hAR subtype (Table 1).
(§2) Receptor binding assays: [^3H]8-Cyclopentyl-1,3-dipropylxanthine ([^3H]DPCPX, 120 Ci/mmol) and [^125I]N ^6-(4-amino-3-iodobenzyl)adenosine-5'-N-methyluronamide ([^125I]I-AB-MECA, 2200 Ci/mmol) were purchased from Perkin–Elmer Life and Analytical Science (Boston, MA). [^3H](2-[p-(2-Carboxyethyl)phenyl-ethylamino]-5'-N-ethylcarboxamido-adenosine) ([^3H]CGS21680, 39 Ci/mmol) was purchased from American Radiolabeled Chemicals, Inc. (St. Louis, MO). Other pharmacological reagents were purchased from Tocris-R&D Systems, Inc. (Minneapolis, MN). Test compounds were prepared as 5 mM stock solutions in DMSO and stored frozen.
(§3) Cell Culture and Membrane Preparation: CHO cells stably expressing the recombinant hA1 and hA3ARs, and HEK-293 cells stably expressing the hA2AAR were cultured in Dulbecco’s modified Eagle medium (DMEM) and F12 (1∶1) supplemented with 10% fetal bovine serum, 100 units/mL penicillin, 100 µg/mL streptomycin, and 2 µmol/mL glutamine. In addition, 800 µg/mL geneticin was added to the A2A media, while 500 µg/mL hygromycin was added to the A1 and A3 media. After harvesting, cells were homogenized and suspended in PBS. Cells were then centrifuged at 240 g for 5 min, and the pellet was resuspended in 50 mM Tris-HCl buffer (pH 7.5) containing 10 mM MgCl2. The suspension was homogenized and was then ultra-centrifuged at 14,330 g for 30 min at 4°C. The resultant pellets were resuspended in Tris buffer and incubated with adenosine deaminase (3 units/mL) for 30 min at 37°C. The suspension was homogenized with an electric homogenizer for 10 sec, pipetted into 1 mL vials and then stored at -80°C until the binding experiments. The protein concentration was measured using the BCA Protein Assay Kit from Pierce Biotechnology, Inc. (Rockford, IL).
(§4) Binding assays: Standard radioligand binding assays for A1, A2A, and A3ARs were used [37]–[39]. Into each tube in the binding assay was added 50 µL of increasing concentrations of the test ligand in Tris-HCl buffer (50 mM, pH 7.5) containing 10 mM MgCl2, 50 µL of the appropriate agonist radioligand, and finally 100 µL of membrane suspension. For the A1AR (22 µg of protein/tube) the radioligand used was [^3H]DPCPX (final concentration of 0.5 nM). For the A2AAR (20 µg/tube) the radioligand used was [^3H]CGS21680 (final concentration 10 nM). For the A3AR (21 µg/tube) the radioligand used was [^125I]I-AB-MECA (final concentration 0.2 nM). Nonspecific binding was determined using a final concentration of 10 µM NECA diluted with the buffer. The mixtures were incubated at 25°C for 60 min in a shaking water bath. Binding reactions were terminated by filtration through Brandel GF/B filters under a reduced pressure using a M-24 cell harvester (Brandel, Gaithersburg, MD). Filters were washed three times with 3 mL of 50 mM ice-cold Tris-HCl buffer (pH 7.5). Filters for A1 and A2AAR binding were placed in scintillation vials containing 5 mL of Hydrofluor scintillation buffer and counted using a Perkin Elmer Liquid Scintillation Analyzer (Tri-Carb 2810TR). Filters for A3AR binding were counted using a Packard Cobra II γ-counter.
(§5) Data analysis: Binding and functional parameters were calculated using Prism 5.0 software (GraphPAD, San Diego, CA, USA). IC50 values obtained from binding inhibition curves were converted to Ki values using the Cheng-Prusoff equation [40]. Data were expressed as mean ± standard error or percentage inhibition at 10 µM.

In a further experiment the target is T2, human A3AR (Homo sapiens, UniProt P0DMS8).
T2 construct: expressed in transfected cells
T2 sequence (P0DMS8 1-318): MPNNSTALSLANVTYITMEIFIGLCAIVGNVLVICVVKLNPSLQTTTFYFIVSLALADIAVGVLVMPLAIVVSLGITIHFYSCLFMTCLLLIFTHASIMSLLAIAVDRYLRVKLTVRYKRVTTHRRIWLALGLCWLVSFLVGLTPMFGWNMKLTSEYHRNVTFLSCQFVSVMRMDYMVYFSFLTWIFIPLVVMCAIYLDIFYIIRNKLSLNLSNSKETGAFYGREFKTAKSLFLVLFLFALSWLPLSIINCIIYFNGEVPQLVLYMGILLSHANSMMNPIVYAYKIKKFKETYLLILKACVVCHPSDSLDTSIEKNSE
Kind of experiment: Radioligand binding ([125I]I-AB-MECA), membranes of CHO cells expressing hA3AR. To be noted: for inhibition at 10 µM: percent inhibition at 10 µM compound, [125I]I-AB-MECA, read-out: A3 % Inhibition; for inhibition at 10 µM / Ki: hA3AR, CHO cell membranes; for Ki: [125I]I-AB-MECA 0.2 nM, mean ± standard error, read-out: A3 Ki. As for the experimental part:
as §1, §2, §3, §4, §5

Another experiment addresses T3, human A2AAR (Homo sapiens, UniProt P29274).
T3 construct: expressed in transfected cells
Kind of experiment: Radioligand binding ([3H]CGS21680), membranes of HEK293 cells expressing hA2AAR. To be noted: HEK293 cell membranes; for inhibition at 10 µM: percent inhibition at 10 µM compound, [3H]CGS21680, read-out: A2A % Inhibition; for Ki: [3H]CGS21680 10 nM, mean ± standard error, read-out: A2A Ki. As for the experimental part: as §1, §2, §3, §4, §5

The next experiment addresses bovine A1AR. Set-up: method as in PMID 21080692. Conditions: reference compound; cited from earlier work.

T3 sequence (P29274 whole entry): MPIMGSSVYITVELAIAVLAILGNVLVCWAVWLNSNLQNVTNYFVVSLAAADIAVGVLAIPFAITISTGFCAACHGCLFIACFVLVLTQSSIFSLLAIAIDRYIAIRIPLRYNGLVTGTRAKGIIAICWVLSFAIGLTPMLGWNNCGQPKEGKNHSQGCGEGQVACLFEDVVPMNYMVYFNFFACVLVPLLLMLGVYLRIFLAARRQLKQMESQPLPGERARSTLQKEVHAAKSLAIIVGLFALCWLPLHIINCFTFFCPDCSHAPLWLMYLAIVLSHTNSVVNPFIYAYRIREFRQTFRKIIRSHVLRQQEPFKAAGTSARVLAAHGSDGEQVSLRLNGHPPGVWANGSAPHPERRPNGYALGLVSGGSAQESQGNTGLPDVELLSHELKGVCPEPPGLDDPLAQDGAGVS

For the compound `O=C(Nc1nc(-c2ccccn2)cs1)c1cccc(-n2cnnn2)c1` [Compound 8], the “Selectivity for A1AR over A2AAR and A3AR” value on human A1AR (by the criteria used in this screen (>50% inhibition at 10 µM)) is “selective for the A1AR”. The Ki at human A1AR stood at 3.46 ± 0.42 µM. For the same compound, the inhibition at 10 µM at human A3AR amounted to 35 ± 4%; on human A2AAR, 11 ± 6%.
Turning to `COc1ccc(OCC(=O)Nc2nc(-c3ccccn3)cs2)cc1` [Compound 12], the inhibition at 10 µM on human A1AR was found to be 28 ± 9%. Also, the Ki was determined as 2.78 ± 0.92 µM on human A3AR and 3.65 ± 0.87 µM at human A2AAR.
For `Nc1nc(Cn2nnc(-c3ccccc3)n2)nc(Nc2ccccc2)n1` [Compound 24], the inhibition at 10 µM at human A1AR worked out at 33 ± 9%. In addition, the Ki is 0.04 ± 0.006 µM at human A3AR and 6.14 ± 1.69 µM at human A2AAR. Moreover, at human A3AR (judged from Ki at the three hAR subtypes), the “Selectivity for A3AR” value is “slightly selective”.
Take `Cc1cc(C)c2c(=O)[nH]c(SCC(=O)Nc3cc(C)on3)nc2n1` [Compound 26]: the values for the Ki on human A1AR, on human A3AR and on human A2AAR were 3.94 ± 0.39 µM, 3.85 ± 0.59 µM and 1.37 ± 0.47 µM, respectively.
For `Cn1c(=O)c2[nH]c(NCC3CCCO3)nc2n(-c2ccccc2)c1=O` (stereo not drawn) [Compound 19], the figures for the Ki at human A1AR and at human A2AAR were 3.34 ± 0.56 µM and 6.66 ± 0.86 µM, respectively. The inhibition at 10 µM at human A3AR is 23 ± 3%.
`C=CCOc1ccccc1/C=N/Nc1nc2ccccc2c(=O)n1C` [Compound 25]: the Ki at human A1AR was found to be 2.93 ± 0.48 µM; at human A3AR it was 0.55 ± 0.07 µM; at human A2AAR, 1.45 ± 0.17 µM.
On to `Cc1ccccc1Nc1nc(N)nc(COc2ccccc2C#N)n1` [Compound 9], for which the inhibition at 10 µM on human A1AR was determined as 2 ± 2%. The Ki on human A3AR was found to be 4.86 ± 0.33 µM; on human A2AAR, 2.36 ± 0.26 µM.
Turning to `O=C(Nc1nc(-c2ccccn2)cs1)c1cc2c(F)cccc2[nH]1` [Compound 10], the inhibition at 10 µM was 9 ± 9% on human A1AR and 37 ± 1% at human A2AAR. For the same compound, the Ki on human A3AR was 9.06 ± 1.1 µM.
Consider `CCOc1cccc2cc(C(=O)NCc3ccccn3)c(=N)oc12` [Compound 17], for which the values for the Ki on human A1AR and on human A2AAR were 0.4 ± 0.06 µM and 0.74 ± 0.39 µM, respectively. For the same compound, on human A3AR, the inhibition at 10 µM was found to be 48 ± 7%.
In the case of `CN(C(=O)Cc1csc(NC(=O)C2CC2)n1)c1ccccc1` [Compound 16], the inhibition at 10 µM at human A1AR turned out to be 13 ± 2%; at human A2AAR, 36 ± 0.2%. Moreover, the Ki at human A3AR worked out at 13.4 µM.
Consider `CCCn1nc(C(=O)Nc2nc(-c3ccccn3)cs2)ccc1=O` [Compound 11], for which the inhibition at 10 µM on human A1AR was 13 ± 9%; on human A2AAR, 35 ± 3%. Also, the Ki on human A3AR was 13.7 µM.
On to `CCS(=O)(=O)Nc1cccc(C(=O)Nc2nc3ccccc3[nH]2)c1` [Compound 21], for which the Ki amounted to 0.98 ± 0.09 µM on human A1AR, 0.205 ± 0.03 µM at human A3AR and 1.34 ± 0.31 µM at human A2AAR.
Turning to `Cn1nnnc1SCC(=O)Nc1nc(-c2cccs2)cs1` [Compound 18], the inhibitory constant (Ki) on human A1AR is 3.43 ± 1.03 µM; at human A3AR, 1.76 ± 0.21 µM; on human A2AAR, 2.13 ± 0.72 µM.
Take `OC1CCC(Nc2nc(-c3ccccc3)nc3c2nnn3Cc2ccccc2)CC1` (stereo not drawn) [Compound 5, 4-[(3-benzyl-5-phenyl-triazolo[4,5-e]pyrimidin-7-yl)amino]cyclohexan-1-ol]: the Ki at bovine A1AR was 3 nM.
Consider `COc1cccc(/C=C/C(=O)Nc2nc(-c3ccccn3)cs2)c1` [Compound 13], for which the inhibition at 10 µM at human A1AR worked out at 10 ± 10%. Further, the inhibitory constant (Ki) at human A3AR stood at 3.48 ± 1.1 µM; on human A2AAR, 10.9 µM.
For `Cc1cccc2c(=O)[nH]c(CSc3n[nH]c(C(C)C)n3)nc12` [Compound 14], the inhibition at 10 µM at human A1AR was found to be 19 ± 10%; at human A3AR it was 49 ± 1%. The Ki on human A2AAR was found to be 6.54 ± 1.09 µM.
Turning to `O=C(Nc1nc(-c2cccc(F)c2)cs1)c1ccc2[nH]nnc2c1` [Compound 23], the Ki on human A1AR came out at 1.22 ± 0.34 µM; on human A3AR it was 0.07 ± 0.02 µM; on human A2AAR, 3.78 ± 0.83 µM.
Turning to `CCN(Cc1nc2ccccc2c(=O)[nH]1)C(=O)c1cc(C2CC2)[nH]n1` [Compound 22], the inhibition at 10 µM came to 36% at human A1AR and 42 ± 6% on human A3AR. Besides, the Ki at human A2AAR was found to be 9.3 ± 0.7 µM.
For `N#Cc1cccc(C(=O)Nc2nc(-c3ccccn3)cs2)c1` [Compound 20], at human A1AR, the inhibition at 10 µM came to 45%. In addition, the Ki at human A3AR turned out to be 1.52 ± 0.36 µM; on human A2AAR, 3.56 ± 0.51 µM.
On to `CC(NC(=O)c1ccco1)C(=O)Nc1nc(-c2ccccn2)cs1` (stereo not drawn) [Compound 7], for which the inhibition at 10 µM is 17 ± 9% on human A1AR and 43 ± 3% on human A3AR. Further, on human A2AAR, the Ki was determined as 3.31 ± 0.27 µM.
For `Nc1nc(COC(=O)c2cc3cc(F)ccc3[nH]2)nc2ccccc12` [Compound 15], the inhibition at 10 µM at human A1AR amounted to 20 ± 4%; on human A2AAR it was 5 ± 3%. Moreover, the Ki on human A3AR came to 9.33 ± 1.8 µM.
